Holding throughout (type): physicochemical
The nature of data set [1]: UV absorbance spectrum in solution (λmax, λcrit, extinction coefficients). The settings on record: for λcrit: critical wavelength; for E (1%, 1 cm): mass extinction coefficient; for ε: molar extinction coefficient, in M-1 cm-1 (unit assumed). The text has this:
(§1) FIG. 1 is a graphical representation of the absorbance of compounds 142 and 143 measured in a 10 mm cuvette as 0.001% solutions in methanol (142 is the uppermost trace at peak point of approximately 330 nm); The synthesised benzoyl functionalised compounds and their spectroscopic properties can be seen in table 2 wherein; breakthrough denotes the value in nm where transmittance increases beyond 1%; steepness refers to the distance in nm over which transmittance increases from 1 to 80% (a higher value indicates a less steep transition from absorbing to transmitting and is generally unfavourable); and ^a denotes an average of multiple measurements. As a general comment, it can be noted that the benzoyl substituted compounds gave similar absorbance maxima to the corresponding trifluoroacetyl derivative.

A short description of data set [2]: % transmission spectrum of 0.1% solution (breakthrough, steepness). Conditions: for Steepness: distance in nm over which transmittance increases from 1 to 80%; for Breakthrough (1% T at 0.1%): value in nm where transmittance increases beyond 1%, 0.1% solution.
From the text: FIG. 2 is a is a graphical representation of the % transmission of compounds 142 and 143 measured in a 2 mm cuvette as 0.1% solutions in methanol (142 is the left most trace);
as §1, with “The” for “FIG. 1 is a graphical representation of the absorbance of compounds 142 and 143 measured in a 10 mm cuvette as 0.001% solutions in methanol (142 is the uppermost trace at peak point of approximately 330 nm); The”

Data set [3] can be described thus: Photostability protocol: thin film irradiated with xenon arc lamp. The settings on record: 1 hour xenon arc lamp; for Photostability: ratio of absorbance at λmax irradiated vs unirradiated, ^a = average of multiple measurements. How it is done:
1 mL of a 3% solution of the test compound (30 mg of test compound in 1 mL solvent) was prepared in a solvent mix made up of 50% EtOH and 25% capric/caprylic triglyceride and 25% C12-C15 alkyl benzoate. 50 μL of this solution (containing 1.5 mg of test compound) was added carefully to the centre of a glass microscope slide and the volatile components left to evaporate in the dark for at least 3 hours to give a liquid film. The prepared films were then exposed for 1 hour to an Eimac 150 W xenon arc lamp filtered through Pyrex (15 Amp supply current, samples 19 cm from the lamp) previously allowed to warm up for 15 minutes prior to sample exposure. The irradiation was performed in a fume cupboard where the air flow was sufficient to keep sample T<30° C. One hour's exposure represented a calculated radiation dose (using meter) of approximately 100 MED.
In order to calculate the photostability of the test compounds, the exposed slides were placed in a beaker and rinsed with 2×5 mL EtOH, 1×5 mL MeOH. The combined washings were then added to a 100 mL volumetric flask and made up to 100 mL total volume with methanol. The UV absorbance was then measured in a 10 mm cuvette. The percent stability is measured as the ratio of absorbance at λmax for the irradiated sample compared to the unirradiated sample.
The thin films are a good surrogate for testing the stability of a candidate in, for example, a sunscreen formulation as they use cosmetic emollients as solvent and are formed at cosmetically relevant concentrations.

Values joined by “and” are separate entries in the source; they are usually repeats but may differ in a detail not shown here. Identical values can stand only once.

For the compound `Cc1ccc(C(=O)/C(=C/N2CCc3ccccc32)c2ccccc2)cc1` [Compound 272], in data set [1], the λmax is 362 nm; the λcrit was 386 nm; the “E (1%, 1 cm)” value was determined as 887; the ε was 30075. Moreover, in data set [2], the Steepness turned out to be 35 nm and the “Breakthrough (1% T at 0.1%)” value is recorded as 421 nm. For the same compound, the Photostability in data set [3] is 80%.
Take `CCN(/C=C(/C(=O)c1ccccc1)c1ccccc1)CC` [Compound 268]: in data set [1], the λmax was 312 nm; the λcrit was 360 nm; the “E (1%, 1 cm)” value is given as 656; the ε came to 18293. Also, in data set [2], the Steepness is 48 nm and the “Breakthrough (1% T at 0.1%)” value stood at 374 nm. The Photostability in data set [3] turned out to be 10%.
For the compound `CCCCC(CC)COC(=O)c1ccc2c(c1)CCN2/C=C(/C(=O)c1ccncc1)c1ccccc1` (stereo not drawn) [Compound 308], in data set [1], the λmax was determined as 374 nm; the λcrit came to 391 nm; the “E (1%, 1 cm)” value is recorded as 796; the ε was found to be 38378. In data set [2], the Steepness worked out at 41 nm and the “Breakthrough (1% T at 0.1%)” value came to 431 nm. In data set [3], the Photostability is recorded as 79%.
As for `CCOC(=O)C(=O)/C(=C\N1CCc2ccccc21)c1ccccc1` [Compound 231], in data set [1], the λmax is recorded as 363 nm; the λcrit is on record as 388 nm; the “E (1%, 1 cm)” value is given as 989; the ε worked out at 31758. Further, in data set [2], the Steepness turned out to be 34 nm and the “Breakthrough (1% T at 0.1%)” value is listed as 418 nm. The Photostability in data set [3] turned out to be 80%.
Turning to `CCCCC(CC)COC(=O)c1ccc2c(c1)CCN2/C=C(/C(=O)C(C)(C)C)c1ccc(Br)cc1` (stereo not drawn) [Compound 309], in data set [1], the λmax was 366 nm; the λcrit stood at 384 nm; the “E (1%, 1 cm)” value came out at 780; the ε was 42050. For the same compound, in data set [2], the Steepness stood at 19 nm and the “Breakthrough (1% T at 0.1%)” value is on record as 397 nm. Further, in data set [3], the Photostability amounted to 80%.
For the compound `COC(=O)c1ccc2c(c1)CCN2/C=C(/C(=O)c1ccccc1)c1ccccc1` [Compound 247], in data set [1], the λmax is given as 371 nm; the λcrit worked out at 389 nm; the “E (1%, 1 cm)” value was 1096; the ε is given as 41977. Also, in data set [2], the Steepness stood at 34 nm and the “Breakthrough (1% T at 0.1%)” value stood at 422 nm. Also, the Photostability in data set [3] stood at 76%.
In the case of `CCOC(=O)C(=O)/C(=C/N1CCc2cc(C(=O)OC)ccc21)c1ccccc1` [Compound 256], in data set [1], the λmax is reported as 372 nm; the λcrit stood at 391 nm; the ε is 48566 and 46566. In data set [2], the Steepness turned out to be 28 nm and the “Breakthrough (1% T at 0.1%)” value is given as 421 nm. For the same compound, the Photostability in data set [3] was 85%.
Take `COC(=O)c1ccc2c(c1)CCN2C=C(C(=O)c1c(C)cc(C)cc1C)c1ccccc1` [Compound 282]: in data set [1], the λmax is listed as 368 nm; the λcrit was found to be 382 nm; the “E (1%, 1 cm)” value was 1427; the ε is recorded as 60650. In data set [2], the Steepness worked out at 23 nm and the “Breakthrough (1% T at 0.1%)” value was determined as 402 nm. For the same compound, the Photostability in data set [3] is 89% and 91%.
Regarding `COC(=O)c1ccc2c(c1)CCN2/C=C(/C(=O)c1ccccc1O[Si](C)(C)C(C)(C)C)c1ccccc1` [Compound 302], in data set [1], the λmax is recorded as 369 nm; the λcrit amounted to 384 nm; the “E (1%, 1 cm)” value came out at 1089; the ε is 55852. Besides, in data set [2], the Steepness is 26 nm and the “Breakthrough (1% T at 0.1%)” value is given as 01 nm. The Photostability in data set [3] was determined as 45%.
Consider `Cc1cc(C)c(C(=O)/C(=C\N2CCc3cc(C(=O)OCCCOC(=O)c4ccc5c(c4)CCN5/C=C(/C(=O)c4c(C)cc(C)cc4C)c4ccccc4)ccc32)c2ccccc2)c(C)c1` [Compound 307], for which, in data set [1], the λmax is given as 370 nm; the λcrit worked out at 384 nm; the “E (1%, 1 cm)” value is recorded as 1251; the ε was 107885. Also, in data set [2], the Steepness is on record as 22 nm and the “Breakthrough (1% T at 0.1%)” value turned out to be 402 nm. Further, the Photostability in data set [3] is listed as 98, 98%.
For `Cc1cc(C)c(C(=O)/C(=C/N2CCc3ccccc32)c2ccccc2)c(C)c1` [Compound 253], in data set [1], the λmax is reported as 355 nm; the λcrit is reported as 375 nm; the “E (1%, 1 cm)” value amounted to 929; the ε is given as 34122. Besides, in data set [2], the Steepness is given as 26 nm and the “Breakthrough (1% T at 0.1%)” value turned out to be 392 nm. Moreover, in data set [3], the Photostability worked out at 78%.
Consider `CCCCC(CC)COC(=O)C(=O)/C(=C/N1CCc2cc(C(=O)OC)ccc21)c1ccccc1` (stereo not drawn) [Compound 278], for which, in data set [1], the λmax came to 372 nm; the λcrit was 391 nm; the “E (1%, 1 cm)” value is 953; the ε amounted to 44118. Besides, in data set [2], the Steepness is 30 nm and the “Breakthrough (1% T at 0.1%)” value was 418 nm. Moreover, the Photostability in data set [3] is reported as 88%.
On to `COC(=O)c1ccc2c(c1)CCN2C=C(C(=O)C(C)(C)C)c1ccc(C)cc1` [Compound 295], for which, in data set [1], the λmax is 368 nm; the λcrit is recorded as 385 nm; the “E (1%, 1 cm)” value is recorded as 1307; the ε is listed as 49288. In data set [2], the Steepness came out at 16 nm and the “Breakthrough (1% T at 0.1%)” value came to 402 nm. Besides, the Photostability in data set [3] was 68%.
As to `CC(C)(C)OC(=O)C(=O)/C(=C/N(c1ccccc1)c1ccccc1)c1ccccc1` [Compound 270], in data set [1], the λmax worked out at 349 nm; the λcrit stood at 381 nm; the “E (1%, 1 cm)” value was 551; the ε was 22023. In data set [2], the Steepness is reported as 35 nm and the “Breakthrough (1% T at 0.1%)” value is recorded as 400 nm. In addition, the Photostability in data set [3] came out at 89%.
In the case of `CCN(/C=C(/C(=O)c1ccccc1C)c1ccccc1)c1ccccc1` [Compound 252], in data set [1], the λmax was determined as 323 nm; the λcrit is recorded as 359 nm; the “E (1%, 1 cm)” value worked out at 771; the ε stood at 26295. Further, in data set [2], the Steepness worked out at 39 nm; the “Breakthrough (1% T at 0.1%)” value is 373 nm and 372 nm. Further, the Photostability in data set [3] is on record as 48%.
For the compound `COc1ccccc1C(=O)/C(=C/N1CCc2ccccc21)c1ccccc1` [Compound 275], in data set [1], the λmax amounted to 358 nm; the λcrit is listed as 383 nm; the “E (1%, 1 cm)” value is listed as 1074; the ε amounted to 38139. In addition, in data set [2], the Steepness is listed as 30 nm and the “Breakthrough (1% T at 0.1%)” value worked out at 406 nm. The Photostability in data set [3] is 56%.
`CC(C)(C)C(=O)/C(=C/N1CCc2cc(C(=O)OCCCOC(=O)c3ccc4c(c3)CCN4/C=C(/C(=O)C(C)(C)C)c3ccccc3)ccc21)c1ccccc1` [Compound 304]: in data set [1], the λmax is reported as 365 nm; the λcrit is 384 nm; the “E (1%, 1 cm)” value is given as 1023; the ε worked out at 75535. Besides, in data set [2], the Steepness turned out to be 19 nm and the “Breakthrough (1% T at 0.1%)” value was 401 nm. In data set [3], the Photostability is 90% and 92%.
Take `CCCCC(CC)COC(=O)c1ccc(N(/C=C(\C(=O)C(F)(F)F)c2ccccc2)CC)cc1` (stereo not drawn) [Compound 227]: in data set [1], the λmax amounted to 347 nm; the λcrit was 374 nm; the “E (1%, 1 cm)” value is 646; the ε is 30252. Further, the “Photostability (% remains)” value in data set [3] was found to be 85%.
Turning to `CCN(/C=C(\C(C)=O)c1ccccc1)CC` [Compound 149], in data set [1], the λmax was found to be 294 nm; the “E (1%, 1 cm)” value was 690; the ε is 14973. Moreover, the “Photostability (% remains)” value in data set [3] worked out at 6%.
Turning to `CCN(/C=C(\C(=O)c1c(F)c(F)c(F)c(F)c1F)c1ccccc1)CC` [Compound 203], in data set [1], the λmax is 319 (broad) nm; the λcrit is given as 356 nm; the “E (1%, 1 cm)” value amounted to 611; the ε was found to be 22532. Also, the “Photostability (% remains)” value in data set [3] was 31%.

These data come from patent US11512042B2, “Enamine compounds for absorbance of electromagnetic energy” (Commonwealth Scientific and Industrial Research Organisation, priority 2015, dated 2022).
